Reference: US20100111972A1, “Method for preventing or treating opiate tolerance and dependence” (priority 2008, published 2010)

Columns and labels:
Type in all cases: in vivo, mice
ephrinB1 = experiment: Western blot of ephrinB1 in spinal cord; conditions: following escalating morphine treatment or morphine withdrawal; SC
Description: (§1) Western blot analysis was used to detect expression of EphB receptors, ephrinBs, and phosphorylated NR2B, ERK and CREB proteins in the SC. A total of 108 mice were used for Western blotting experiments (SC from 4 mice were pooled for each sample and each group consisted of 3 samples). The lumbar segments of the SC were quickly extracted and immediately frozen in liquid nitrogen, and stored at −80° C. The procedure used to quantify temporal changes in protein levels was similar to that previously described (Bundesen et al, 2003). In brief, protein precipitation procedures in conjunction with Western blots were used to detect protein bands with an enhanced chemiluminescent (ECL) detection procedure. Sequential precipitation procedures were used on tissue samples that were lysed in ice-cold (4° C.) lysis buffer [50 mM Tris, pH 7.5, containing 150 mM NaCl, 1% Triton X-100, 0.5% deoxycholate, 0.1% SDS, 0.2 mM EDTA, 10 mM NaF, […], 0.4 mM 4-(2-aminoethyl)-benzenesulfonyl fluoride, and 1 mM sodium orthovanadate. The protein concentration of the lysates was estimated using the method of BCA (Pierce, Ill.), and the total protein content between samples was equalized. […] Data were analyzed with the Molecular Imager (Gel Doc™ XR, 170-8170) and the associated software Quantity One-4.6.5 (Bio-Rad Laboratories, Hercules, Calif.).

p-CREB = experiment: Western blot of phosphorylated CREB in spinal cord; conditions: escalated morphine treatment; SC
Description: as §1

p-NR2B = experiment: Western blot of phosphorylated NR2B in spinal cord; conditions: escalated morphine treatment; SC
Description: as §1

p-ERK = experiment: Western blot of phosphorylated ERK in spinal cord; conditions: escalated morphine treatment; SC
Description: as §1

CGRP = CGRP immunofluorescence in dorsal horn after morphine treatment and withdrawal; conditions: repeated morphine exposure (7 escalating i.p. doses)
Description: (§2) Mice were anesthetized and perfused transcardially with cold saline followed by ice-cold 4% paraformaldehyde solution. The lumbar segment of the SC was dissected out and post-fixed at 4° C. for 4 h with the paraformaldehyde solution, then the Histo Prep (Fisher Scientific, Fair Lawn, N.J.) embedded blocks were sectioned on a Leica CM1850 cryostat (Leica Microsystems, Germany). Sections (10 μm) were thaw-mounted on to glass slides and allowed to air dry. The immunofluorescence staining was performed as previously described (Kerr et al, 2000). Endogenous peroxidases were blocked by incubating tissue sections with 0.3% hydrogen peroxide for 30 min and 3% normal goat serum for 20 min. […]
(§3) The morphologic details of the immunofluorescence staining on SC were studied under a fluorescence microscope (Olympus BX51WI; Olympus America Inc., Melville, N.Y.). […] Fos-immunoreactive neurons were counted in blind fashion. The number of Fos-like immunoreactive neurons in DH (laminae I-VI) was determined by averaging the counts made in 20 SC sections (L4-L5) for each group. To obtain quantitative measurements of CGRP immunofluorescence, 15-20 fields covering the entire DH in each group were evaluated and photographed at the same exposure time to generate the raw data. Fluorescence intensities of the different groups were analyzed using MicroSuite image analysis software (Olympus America Inc.). […]

[1] = test system: phosphotyrosine (PY99) proteins; experiment: Western blot of phosphotyrosine (PY99) proteins in spinal cord; conditions: following escalating morphine treatment or morphine withdrawal; SC
Description: as §1

ephrinB2 = experiment: Western blot of ephrinB2 in spinal cord; conditions: following escalating morphine treatment or morphine withdrawal; SC
Description: as §1

EphB1 receptor protein = experiment: Western blot of EphB1 receptor protein in spinal cord; conditions: SC
Description: as §1

c-Fos = c-Fos immunostaining in dorsal horn during morphine withdrawal; conditions: naloxone challenge after escalating morphine treatment
Description: as §2, §3

Row | Compound | expression of ephrinB1 (ephrinB1) | level of p-CREB protein (p-CREB) | level of p-NR2B protein (p-NR2B) | level of p-ERK protein (p-ERK) | expression of CGRP throughout the DH region of the SC (CGRP) | expression of phosphotyrosine (PY99) proteins [1] | expression of ephrinB2 (ephrinB2) | expression of EphB1 receptor protein (EphB1 receptor protein; after escalating morphine treatment) | morphine-induced increase in EphB1 receptor protein expression (EphB1 receptor protein; naloxone treatment after escalating morphine) | number of Fos-like immunoreactive neurons in the dorsal horn (c-Fos)
1 | CN1CC[C@]23c4c5ccc(O)c4O[C@H]2[C@@H](O)C=C[C@H]3[C@H]1C5 [morphine] | failed to show significant changes | significant increases | significant increases | significant increases | greatly increased | failed to show significant changes | failed to show significant changes | significantly increased |  | 
2 | C=CCN1CC[C@]23c4c5ccc(O)c4O[C@H]2C(=O)CC[C@@]3(O)[C@H]1C5 [naloxone] |  |  |  |  |  |  |  |  | did not significantly alter | significantly increased
